In brackets after ≈: the same amount, converted by molar mass.
What was measured:
[1] = Cytotoxicity against HEK cells assessed as cell viability at 0.65 ug/ml after 24 hrs by CellTiter-Glo assay relative to control; type: toxicity, cell-based, HEK293; conditions: human, read-out: Activity
Acinetobacter baumannii = test: Antibacterial activity against Acinetobacter baumannii after 16 to 18 hrs by micro-dilution method; type: functional
Morganella morganii = test: Antibacterial activity against Morganella morganii after 16 to 18 hrs by micro-dilution method; type: functional
Bacillus subtilis = test: Antibacterial activity against Bacillus subtilis 168 after 16 to 18 hrs by micro-dilution method; type: functional; conditions: subsp. subtilis str. 168
Escherichia coli [2] = test: Adjuvant activity assessed as potentiation of ciprofloxacin-induced antibacterial activity against Escherichia coli BW25113 at 0.5 times MIC after 16 to 18 hrs by checkerboard assay (reference value: 13 ng/ml); type: functional
Pseudomonas aeruginosa = test: Antibacterial activity against Pseudomonas aeruginosa after 16 to 18 hrs by micro-dilution method; type: functional
Klebsiella pneumoniae = test: Antibacterial activity against Klebsiella pneumoniae after 16 to 18 hrs by micro-dilution method; type: functional
Escherichia coli [3] = test: Antibacterial activity against Escherichia coli BW25113 after 16 to 18 hrs by micro-dilution method; type: functional
Edwardsiella tarda = test: Antibacterial activity against Edwardsiella tarda after 16 to 18 hrs by micro-dilution method; type: functional
Escherichia coli [4] = test: Adjuvant activity assessed as potentiation of chloramphenicol-induced antibacterial activity against Escherichia coli BW25113 at 0.5 times MIC after 16 to 18 hrs by checkerboard assay (reference value: 8 ng/ml); type: functional
Escherichia coli [5] = test: Adjuvant activity assessed as potentiation of ciprofloxacin-induced antibacterial activity against Escherichia coli BW25113 at 0.25 times MIC after 16 to 18 hrs by checkerboard assay (reference value: 13 ng/ml); type: functional
Shigella boydii = test: Antibacterial activity against Shigella boydii after 16 to 18 hrs by micro-dilution method; type: functional
Escherichia coli [6] = test: Adjuvant activity assessed as potentiation of tetracycline-induced antibacterial activity against Escherichia coli BW25113 at 0.25 times MIC after 16 to 18 hrs by checkerboard assay (reference value: 2 ng/ml); type: functional
[7] = Cytotoxicity against HEK cells assessed as cell viability at 1.3 ug/ml after 24 hrs by CellTiter-Glo assay relative to control; type: toxicity, cell-based, HEK293; conditions: human, read-out: Activity
Escherichia coli [8] = test: Antibacterial activity against tolC-deficient Escherichia coli BW25113 after 16 to 18 hrs by micro-dilution method; type: functional
Escherichia coli [9] = test: Adjuvant activity assessed as potentiation of rifampicin-induced antibacterial activity against Escherichia coli BW25113 at 0.25 times MIC after 16 to 18 hrs by checkerboard assay (reference value: 8 ng/ml); type: functional
[10] = Cytotoxicity against HEK cells assessed as cell viability at 2.6 ug/ml after 24 hrs by CellTiter-Glo assay relative to control; type: toxicity, cell-based, HEK293; conditions: human, read-out: Activity
Escherichia coli [11] = test: Adjuvant activity assessed as potentiation of chloramphenicol-induced antibacterial activity against Escherichia coli BW25113 at 0.25 times MIC after 16 to 18 hrs by checkerboard assay (reference value: 8 ng/ml); type: functional
[12] = Cytotoxicity against HEK cells assessed as cell viability at 2.6 ug/ml after 48 hrs by CellTiter-Glo assay relative to control; type: toxicity, cell-based, HEK293; conditions: human, read-out: Activity
Klebsiella aerogenes = test: Antibacterial activity against Enterobacter aerogenes after 16 to 18 hrs by micro-dilution method; type: functional
Salmonella typhimurium = test: Antibacterial activity against Salmonella typhimurium after 16 to 18 hrs by micro-dilution method; type: functional, Salmonella enterica subsp. enterica serovar Typhimurium; conditions: Salmonella enterica
Staphylococcus aureus = test: Antibacterial activity against Staphylococcus aureus after 16 to 18 hrs by micro-dilution method; type: functional
Vibrio cholerae = test: Antibacterial activity against Vibrio cholerae after 16 to 18 hrs by micro-dilution method; type: functional
Escherichia coli [13] = test: Adjuvant activity assessed as potentiation of rifampicin-induced antibacterial activity against Escherichia coli BW25113 at 0.5 times MIC after 16 to 18 hrs by checkerboard assay (reference value: 8 ng/ml); type: functional
[14] = Cytotoxicity against HEK cells assessed as cell viability at 0.65 ug/ml after 48 hrs by CellTiter-Glo assay relative to control; type: toxicity, cell-based, HEK293; conditions: human, read-out: Activity
[15] = Cytotoxicity against HEK cells assessed as cell viability at 1.3 ug/ml after 48 hrs by CellTiter-Glo assay relative to control; type: toxicity, cell-based, HEK293; conditions: human, read-out: Activity
Escherichia coli [16] = test: Adjuvant activity assessed as potentiation of tetracycline-induced antibacterial activity against Escherichia coli BW25113 at 0.5 times MIC after 16 to 18 hrs by checkerboard assay (reference value: 2 ng/ml); type: functional
[17] = Cytotoxicity against HEK cells assessed as cell viability at 3.5 ug/ml after 24 hrs by CellTiter-Glo assay relative to control; type: toxicity, cell-based, HEK293; conditions: human, read-out: Activity
Escherichia coli [18] = test: Induction of membrane permeabilization in Escherichia coli BW25113 at MIC after 15 mins by propidium iodide staining-based fluorescence microplate reader method relative to 50% ethanol; type: functional
[19] = Cytotoxicity against HEK cells assessed as cell viability at 6.9 ug/ml after 48 hrs by CellTiter-Glo assay relative to control; type: toxicity, cell-based, HEK293; conditions: human, read-out: Activity
[20] = Cytotoxicity against HEK cells assessed as cell viability at 14 ug/ml after 48 hrs by CellTiter-Glo assay relative to control; type: toxicity, cell-based, HEK293; conditions: human, read-out: Activity
[21] = Cytotoxicity against HEK cells assessed as cell viability at 6.9 ug/ml after 24 hrs by CellTiter-Glo assay relative to control; type: toxicity, cell-based, HEK293; conditions: human, read-out: Activity
[22] = Cytotoxicity against HEK cells assessed as cell viability at 3.5 ug/ml after 48 hrs by CellTiter-Glo assay relative to control; type: toxicity, cell-based, HEK293; conditions: human, read-out: Activity
[23] = Cytotoxicity against HEK cells assessed as cell viability at 14 ug/ml after 24 hrs by CellTiter-Glo assay relative to control; type: toxicity, cell-based, HEK293; conditions: human, read-out: Activity

Work on CCCCCCCCCOc1cccc(CCN)c1 yielded a viability at 24 h, 0.65 ug/ml [1] of 72.7%, an MIC (Acinetobacter baumannii) of 5.3 µg/mL (≈ 20.1 µM) and an MIC (Morganella morganii) of 11 µg/mL (≈ 41.8 µM). It also gave an MIC (Bacillus subtilis) of 0.66 µg/mL (≈ 2.51 µM), an MIC (Escherichia coli [2]) of 0.025 µg/mL and an MIC (Pseudomonas aeruginosa) of 21 µg/mL (≈ 79.7 µM). It also gave an MIC (Klebsiella pneumoniae) of 5.3 µg/mL (≈ 20.1 µM), an MIC (Escherichia coli [3]) of 5.3 µg/mL (≈ 20.1 µM) and an MIC (Edwardsiella tarda) of 5.3 µg/mL (≈ 20.1 µM). For the same molecule, the MIC (Escherichia coli [4]) was 0.004 µg/mL, the MIC (Escherichia coli [5]) was 0.025 µg/mL and the MIC (Shigella boydii) was 5.3 µg/mL (≈ 20.1 µM). It also gave an MIC (Escherichia coli [6]) of 0.002 µg/mL, a viability at 24 h, 1.3 ug/ml [7] of 60.5% and an MIC (Escherichia coli [8]) of 2.6 µg/mL (≈ 9.87 µM). It also gave an MIC (Escherichia coli [9]) of 0.004 µg/mL, a viability at 24 h, 2.6 ug/ml [10] of 3.4% and an MIC (Escherichia coli [11]) of 0.008 µg/mL. The viability at 48 h, 2.6 ug/ml [12] was 1.8%, the MIC (Klebsiella aerogenes) was 5.3 µg/mL (≈ 20.1 µM) and the MIC (Salmonella typhimurium) was 5.3 µg/mL (≈ 20.1 µM). For the same molecule, the MIC (Staphylococcus aureus) was 5.3 µg/mL (≈ 20.1 µM), the MIC (Vibrio cholerae) was 5.3 µg/mL (≈ 20.1 µM) and the MIC (Escherichia coli [13]) was 0.002 µg/mL. For the same molecule, the viability at 48 h, 0.65 ug/ml [14] was 58.1%, the viability at 48 h, 1.3 ug/ml [15] was 31% and the MIC (Escherichia coli [16]) was 0.001 µg/mL.

For CCCCCCCCCCCCOc1ccc2[nH]cc(CCN)c2c1.Cl, the MIC (Acinetobacter baumannii) was 28 µg/mL, the viability at 24 h, 3.5 ug/ml [17] was 26% and the Activity (Escherichia coli [18]) was 10%. For the same molecule, the MIC (Morganella morganii) was > 110 µg/mL, the MIC (Bacillus subtilis) was 1.7 µg/mL and the MIC (Escherichia coli [2]) was 0.0008 µg/mL. For the same molecule, the MIC (Pseudomonas aeruginosa) was > 110 µg/mL, the viability at 48 h, 6.9 ug/ml [19] was 2.6% and the viability at 48 h, 14 ug/ml [20] was 0.2%. The viability at 24 h, 6.9 ug/ml [21] was 10.4%, the MIC (Klebsiella pneumoniae) was > 110 µg/mL and the MIC (Escherichia coli [3]) was 26 µg/mL. For the same molecule, the viability at 48 h, 3.5 ug/ml [22] was 13.4%, the MIC (Edwardsiella tarda) was > 110 µg/mL and the MIC (Escherichia coli [4]) was 0.0005 µg/mL. The MIC (Escherichia coli [5]) was 0.013 µg/mL, the MIC (Shigella boydii) was 14 µg/mL and the MIC (Escherichia coli [6]) was 0.001 µg/mL. It also gave an MIC (Escherichia coli [8]) of 6.9 µg/mL, an MIC (Escherichia coli [9]) of 0.001 µg/mL and a viability at 24 h, 14 ug/ml [23] of 1.5%. The MIC (Escherichia coli [11]) was 0.001 µg/mL, the MIC (Klebsiella aerogenes) was > 110 µg/mL and the MIC (Salmonella typhimurium) was 28 µg/mL. For the same molecule, the MIC (Staphylococcus aureus) was 3.4 µg/mL, the MIC (Vibrio cholerae) was 28 µg/mL and the MIC (Escherichia coli [13]) was 0.00025 µg/mL. For the same molecule, the MIC (Escherichia coli [16]) was 0.00025 µg/mL.
